Reference: US20100324017A1, “ACYLGUANIDINE DERIVATIVE” (priority 2007, published 2010)

Assays:
[1] = test system: MK-801-induced spontaneous alternation behavior disorder; assay: MK-801-induced spontaneous alternation behavior disorder in mice (Y-maze); type: in vivo; settings: mouse, oral, dose 0.003 mg/kg; MK-801 0.15 mg/kg i.p.
Method: (§1) An Improvement Effect for Scopolamine-Induced or MK-801-Induced Spontaneous Alternation Behavior in Mice
(§2) An improvement effect of the compound (I) for cognitive impairment was evaluated by the above-described well-known test method as a model of a short-term learning disorder.
(§3) Species: Male ddY mice/number of animals (number of animals per group): 6 to 10 animals per group
(§4) A mouse was introduced into the laboratory 1 hour before starting the test. The mouse was placed at one end of an arm in a Y-maze having equal lengths of arms in three directions, and was able freely explored for 8 minutes with the number of the entries into the arms were counted. Furthermore, a spontaneous alternation behavior was defined as consecutive entries into each of the three arms, and an alternation rate was defined as the percentage of the number of time of this behavior relative to the total number of the entries, and calculated by the following equation.
Alternation rate (%)=(number of spontaneous alternation behaviors/total number of entries−2)×100. […]
The alternation rate (%) is expressed as an average value in each group (mean±SE). […] By carrying out the Dunnett evaluation for the group administered with the compound to be tested relative to the control group, the presence or absence of the learning disorder action of the compound to be tested was determined. […]

human 5-HT5A receptor = molecular target: T1, human 5-HT5A receptor (Homo sapiens, UniProt P47898); assay: Test of human 5-HT5A receptor binding inhibition ([3H]5-CT, HEK293 cell membrane); settings: [3H]5-CT binding, membrane of HEK293 cell expressing human 5-HT5A receptor
T1 construct: expressed in transfected cells; membrane preparation
T1 sequence (P47898 whole entry): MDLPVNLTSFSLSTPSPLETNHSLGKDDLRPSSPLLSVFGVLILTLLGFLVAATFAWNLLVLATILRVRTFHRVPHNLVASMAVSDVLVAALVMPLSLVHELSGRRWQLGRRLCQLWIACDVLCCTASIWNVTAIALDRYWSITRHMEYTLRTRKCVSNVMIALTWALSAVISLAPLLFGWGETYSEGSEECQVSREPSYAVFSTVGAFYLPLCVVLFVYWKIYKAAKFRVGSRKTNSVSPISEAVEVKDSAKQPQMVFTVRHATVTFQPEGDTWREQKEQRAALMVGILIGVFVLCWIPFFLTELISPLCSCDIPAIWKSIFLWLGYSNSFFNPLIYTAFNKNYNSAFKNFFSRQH
Method: An ORF of a human 5-HT5A receptor (Genbank AF498985) was cloned from a human hippocampal cDNA library, and then inserted into a pCR2.1 vector (Invitrogen), and Escherichia coli having the plasmid was mass cultured. Next, the human 5-HT5A receptor full-length cDNA sequence was analyzed, recombined into a pCDNA3.1 vector (Invitrogen) as an expression vector, and mass cultured. A human embryonic kidney-induced cell HEK293 cell (ATCC) was seeded, and the resulting expression plasmid (1 μg) above was added thereto together with LIPOFECTAMINE 2000 (Invitrogen; 2 μl), a gene was introduced into the HEK293 cell, and then Geneticin (G418 sulfate 500 μg/ml; Kanto Chemical Co., Inc.) was used as a drug-resistant marker to screen the expressing cell. Thus prepared gene-expressing recombinant cell was cultured in a D-MEM, 10% FCS, 1% Pc./Sm., 500 μg/ml G418 culture medium for 3 days. This experimental operation was conducted in accordance with a gene operation experiment manual of a known method (Sambrook, J. et al, Molecular Cloning-A Laboratory Manual“, Cold Spring Harabor Laboratory, NY, 1989), etc., an instruction appended in a reagent or the like.
(1) Preparation of a Membrane from an HEK293 Cell Forcibly Expressing a Human 5-HT5A Receptor
An HEK293 cell forcibly expressing a human 5-HT5A receptor was cultured in an F500 plate, and scraped for collection using a scraper. After centrifugation, the precipitates were collected and an incubation buffer (50 mM Tris (HCl) PH 7.4, 10 mM Mg504, 0.5 mM EDTA) was added thereto. After homogenization, it was further centrifuged, an incubation buffer was added to the precipitate, and the mixture was well suspended. These operations were repeatedly conducted, the protein concentration was then measured, and the preparation of a membrane was completed.
(2) Experiment on Human 5-HT5A Receptor Binding Inhibition
The compound to be tested (0.3 to 300 nM) and a 100 μM 5-CT solution in DMSO were added to a 96-well plate at 2 μl/well. The number of the wells to be measured under the same condition in one experiment was set at 2, and an average value thereof was used. It was suspended in an incubation buffer, and a HEK293 cell membrane forcibly expressing a human 5-HT5A receptor that had been prepared at 200 μg/ml was added thereto at 100 μl/well. The mixture was incubated at room temperature for 15 minutes, and a [^3H]5-CT solution (2 nM [^3H]5-CT, an incubation buffer) was then added thereto at 100 μl/well.
Separate from this, 100 μl of the solution was dispersed to a liquid scintillation vial, 2 ml of Aquasol II (registered trademark) was added thereto, followed by stirring, and the radioactivity was then measured with a liquid scintillation counter. The solution was incubated at 37° C. for 60 minutes. The reaction liquid was sucked to a 96-well GF/C filter plate that had been preliminarily treated with 0.2% polyethyleneimine, and washed six times with an ice-cooled 50 mM Tris (pH 7.5) buffer. The GF/C filter plate was dried.
MicroscintTMPS (registered trademark) was added thereto at 40 μl/well. The radioactivity remaining on the GF/C filter plate was measured in a top counter.
For the inhibitory activity for the binding of the [^3H]5-CT by the compound to be tested in each experiment, IC50 value was calculated by taking the radioactivity when only DMSO was added as 0% inhibition, and the radioactivity when 1 μM 5-CT was added as 100% inhibition. Apart from this, a Ki value was calculated from the Kd value of the [^3H]5-CT that had been determined by Scatchard analysis.
Ki=IC50 (1+Concentration of the ligands added/Kd (4.95 nM))

[2] = test system: scopolamine-induced spontaneous alternation behavior disorder; assay: Scopolamine-induced spontaneous alternation behavior disorder in mice (Y-maze); type: in vivo; settings: mouse, oral, dose 0.003 mg/kg; scopolamine 0.5 mg/kg i.p.
Method: as §1, §2, §3, §4
Alternation rate (%)=(number of spontaneous alternation behaviors/total number of entries−2)×100.
The compound to be tested was orally administered 50 minutes before the initiation of the test, and 30 minutes later, 0.5 mg/kg of scopolamine or 0.15 mg/kg of MK-801 (in the normal group, physiological saline) was intraperitoneally administered. Furthermore, for the normal group (the group administered with physiological saline) and the control group (the group administered with 0.5 mg/kg scopolamine or 0.15 mg/kg MK-801), a solvent (vehicle) was orally administered when the compound to be tested was administered. For the normal group, physiological saline was intraperitoneally administered when scopolamine was administered.
The alternation rate (%) is expressed as an average value in each group (mean±SE). In regard to the alternation rate (%), in the case where a significant difference between the normal group and the control group (Student's T test) was found, it was considered that there was an establishment of learning disorder by the administration of scopolamine or MK-801. By carrying out the Dunnett evaluation for the group administered with the compound to be tested relative to the control group, the presence or absence of the learning disorder action of the compound to be tested was determined. In each evaluation, it was considered that there was a tendency at p<0.10, and there was a significant difference at p<0.05.

[3] = test system: water maze learning disorders in old rats; assay: Water maze learning disorders in old rats; type: in vivo, rat
Method: Evaluation of a Drug for Water Maze Learning Disorders in Old Rats
The improvement effect of the compound (I) for dementia was evaluated by a known water maze learning disorder model used as a pathophysiology model.
Specifically, it was evaluated in accordance with the method as described in “J Pharmacol Exp Ther, 1996; 279: 1157-73, Yamazaki M. et al.”.

Row | SMILES | improvement of MK-801-induced spontaneous alternation behavior disorder [1] | Ki (human 5-HT5A receptor) | inhibition of scopolamine-induced spontaneous alternation behavior disorder [2] | improvement of water maze learning disorders in old rats ([3]; dose 0.01 mg/kg) | improvement of water maze learning disorders in old rats ([3]; dose 0.03 mg/kg)
1 | NC(N)=NC(=O)c1ccc2c3ccccc3n(C3CCOCC3)c2c1 [Example 25] | significantly improved | 0.51 nM | significantly inhibited | significantly improved | significantly improved
2 | CC(C)n1c2cc(C(=O)N=C(N)N)ccc2c2c(CO)cccc21 [Example 65] |  | ≤ 50 nM | significantly inhibited |  | 
